Test results as given in article PMC11784013, “Potassium molybdate blocks APN-dependent coronavirus entry by degrading receptor via PIK3C3-mediated autophagy” (Journal of Virology, 2024).
Entries after “also recorded” stand apart in the source; their conditions may differ.

What was measured:
PDCoV = PDCoV infection of PK1 cells (RT-qPCR); format: cell-based; settings: PM 10 mM, PDCoV 0.1 MOI, 17 h
Experimental: Fig. S1. […] (A) The PK1 cells, pretreated with PM (10mM) concentrations for 1 h were infected with PDCoV (0.1 MOI) for 1 h and were again treated with PM at 37 °C for 17 h.
The cell samples were collected and examined by RT-qPCR . Results are presented as mean ± SD of data from three independent experiments ***, P≤ 0.001.
(also on this page, place not known: RT-qPCR. + - + + 2 3 4 5 6Viral load(log copies/ul) *** PDCoV PM PDCoV M)
(1 picture or pasted object on this page, not shown here)

APN = APN expression in HEK-293T cells (western blot); format: cell-based, human; settings: for APN level, western blot quantified by Image J, relative to no PM (=1): PM 10 mM
Experimental: Fig. S6. PM degrades human and mouse-derived APN expression. (A and B) HEK-293T cells (A) and […] (B) were treated with PM (10 mM) for 8 h or 16 h respectively, APN expression was measured by western blot. All western blot results were calculated by Image J. All experiments were […]
PM(10mM) - + - + PM(10mM) - + - + […]

PIK3C3 = PIK3C3 expression in ST cells (western blot); format: cell-based, porcine; settings: PM 10 mM, 16 h; for PIK3C3 level, western blot, relative to WT without PM (=1): PRCV 0.1 MOI
Experimental: Fig 7 PM degrades APN expression via activating PIK3C3-mediated autophagy. (A) Graphical representation for autophagy and the targets of different autophagy inhibitors. (B) ST cells were treated with PM (10 mM) in the presence and absence of 3-MA (20 mM), SBI0206965 (20 µM), and 3BDO (30 µM) for 16 h, and the APN expression was detected by western blot. (C) ST cells were treated with PM (10 mM) in the presence and absence of 3-MA (20 mM) for 16 h, and the APN, PIK3C3, ATG14, BECN1, P62, and LC3 were measured by western blot. (D) ST cells were transfected with PIK3C3 siRNA-1, PIK3C3 siRNA-2, PIK3C3 siRNA-3, PIK3C3 siRNA-4, and NC siRNA for 24 h, the PIK3C3 expression was detected by western blot. (E) ST cells were transfected with PIK3C3 siRNA-4 or NC siRNA for 24 h and then treated with PM (10 mM) for 16 h. The APN, PIK3C3, ATG14, BECN1, P62, and LC3 were detected by western blot. (F) Sequencing diagram for WT ST cells and PIK3C3 KO ST cells. (G) PIK3C3 was detected by western blot in WT ST cells and PIK3C3 KO ST cells. (H) WT ST cells and PIK3C3 KO ST cells were treated with PM (10 mM) for 16 h and then the APN, PIK3C3, ATG14, BECN1, P62, and LC3 were detected by western blot. (I) WT ST cells and PIK3C3 KO ST cells were transfected with pCMV-Myc and pCMV-Myc-PIK3C3, respectively, for 24 h and treated with PM (10 mM) for 16 h. The APN, PIK3C3, P62, and LC3 were detected by western blot. All western blot results were calculated by Image J. All experiments were performed in triplicate.
Fig. S8. PM inhibits PRCV infection by degrading APN via PIK3C3-mediated autophagy. (A-C) WT ST cells and PIK3C3 KO ST cells were treated with PM (10 mM) and infected with PRCV (0.1 MOI) for 16 h. Then the APN, PIK3C3, ATG14, BECN1, P62, PRCV N and LC3 were detected by western blot (A), and viral titers and PRCV N mRNA level were determined by TCID50 (B) and RT-qPCR (C) . […] The APN, PIK3C3, P62, PRCV N and LC3 were determined by western blot (D). […]

[K+].[K+].[O]=[Mo](=[O])([O-])[O-] [PM, potassium molybdate]
PDCoV infection (PDCoV): inhibits PDCoV infection; also recorded: effectively restricted
APN level, western blot quantified by Image J, relative to no PM (=1) (APN; 8 h): 0.42
APN level, western blot quantified by Image J, relative to no PM (=1) (APN; 16 h): 0.23
human APN expression (APN; PM for 8 and 16 h): also decreased human and mouse-derived APN expression
PIK3C3 level, western blot, relative to WT without PM (=1) (PIK3C3; Fig. S8A, WT ST cells): 2.83
PIK3C3 level, western blot, relative to WT without PM (=1) (PIK3C3; Fig. S8D, WT ST cells with pCMV-Myc): 1.73
PIK3C3 expression (PIK3C3; ST cells, western blot): activated PIK3C3 expression
